Measured values from US20170217914A1, “Novel Triarylethylene Compounds and Methods Using Same” (The Penn State Research Foundation, priority 2014, published 2017).
Where two headings read alike, the source gives them in different places.

Assays:
[1] = tested on: MCF-7 (ER-positive) human breast cancer cell line; test: MTT cell viability assay, MCF-7 cells; settings: for IC50: Homo sapiens; for cytotoxic activity: 72 h, versus Ospemifene and Tamoxifen; for anticancer activity in initial screening: 0.5-25 μM, 48 h (FIG. 3)
Procedure: (§2) An MTT solution was added to each well and incubated for 3 h at 37° C. After 3 h, DMSO was added and the optical density was measured at 570 nm using a 96-well multiscanner (Dynex Technologies, MRX Revelation; Chantilly, Va., USA). Backgrounds were subtracted at 630 nm. IC50 values were calculated by non-linear regression analysis using Prism software.
(§3) The effects of novel triarylethylene derivatives on the cell viability were determined by the MTT uptake method using previously described methods (Kaur et al., 2014, Eur. J. Med. Chem. 86:211-218). Briefly, 3000 cells were incubated with various concentrations of compounds in triplicate in a 96-well plate for 72 h at 37° C. An MTT solution was added to each well and incubated for 3 h at 37° C. After 3 h, DMSO was added and the optical density was measured at 570 nm using a 96-well multiscanner (Dynex Technologies, MRX Revelation; Chantilly, Va., USA). Backgrounds were subtracted at 630 nm. IC50 values were calculated by non-linear regression analysis using Prism software.

[2] = tested on: MDA-MB-231 (ER-negative) human breast cancer cell line; test: MTT cell viability assay, MDA-MB-231 cells; settings: for IC50: Homo sapiens; for cytotoxic activity: 72 h, versus Ospemifene and Tamoxifen; for anticancer activity in initial screening: 0.5-25 μM, 48 h (FIG. 3)
Procedure: as §2, §3

[3] = tested on: MMP-9; test: Western blot, MMP-9 expression in breast cancer cells; assay type: cell-based, human; settings: MDA-MB-231 and MCF-7 cells, 24 h
Procedure: (§1) To determine the effect of novel triarylethylene derivatives on proteins involved in metastasis, and adhesion, whole-cell extracts were prepared by subjecting cells to lysis in RIPA buffer supplemented with protease and phosphatase inhibitor cocktails using previously described methods (Pandey et al., 2014, Exp. Hematol. 42:883-896). Lysates were spun at 15,000 rpm for 10 minutes to remove insoluble material. Supernatant were collected and kept at −80° C. Lysates were resolved by SDS-PAGE. After electrophoresis, the proteins were electro-transferred to PVDF membranes, blotted with the relevant antibodies, and detected by enhanced chemo-luminescence reagent.

[4] = tested on: c-Myc; test: Western blot, c-Myc expression in breast cancer cells; assay type: cell-based, human; settings: MDA-MB-231 and MCF-7 cells, 24 h
Procedure: as §1

[5] = tested on: caveolin; test: Western blot, caveolin expression in breast cancer cells; assay type: cell-based, human; settings: MDA-MB-231 and MCF-7 cells, 24 h
Procedure: as §1

[6] = tested on: normal mouse embryonic fibroblast (MEF) cells; test: MTT cell viability assay, normal MEF cells; settings: 48 h
Procedure: as §2

[7] = MCF7, 72 h, read-out: MCF-7 IC50
[8] = MDA-MB-231, 72 h, read-out: MDA-MB-231 IC50
[9] = MCF7, 48 h, read-out: MCF-7 (ER positive) IC50
[10] = MCF7, 96 h, read-out: MCF-7 (ER positive) IC50
[11] = MDA-MB-231, 48 h, read-out: MDA-MB-231 (ER− negative) IC50
[12] = MDA-MB-231, 96 h, read-out: MDA-MB-231 (ER− negative) IC50

COc1ccc(/C(=C(/CCNC(=O)N2CCOCC2)c2ccccc2)c2ccccc2)cc1 [Compound 18, (Z)—N-(4-(4-Methoxyphenyl)-3,4-diphenylbut-3-enyl)morpholine-4-carboxamide]
melting point: 139 to 141 °C | IC50 [1, 7]: > 50 µM | IC50 [2, 8]: 42.8 ± 12.2 µM

COc1ccc(/C(=C(/CCNC(=O)N2CCCC2)c2ccccc2)c2ccccc2)cc1 [Compound 21, (Z)—N-(4-(4-Methoxyphenyl)-3,4-diphenylbut-3-enyl)pyrrolidine-1-carboxamide]
melting point: 194.2 to 195.4 °C | IC50 [1, 7]: > 50 µM | IC50 [2, 8]: > 50 µM

COc1ccc(/C(=C(/CCNC(=O)NC2CCCCC2)c2ccccc2)c2ccccc2)cc1 [Compound 17, (Z)-1-Cyclohexyl-3-(4-(4-methoxyphenyl)-3,4-diphenylbut-3-enyl) urea]
melting point: 168 to 170 °C | IC50 [1, 7]: 37.2 ± 13.7 µM | IC50 [2, 8]: > 50 µM

CCN(CC)C(=O)NCC/C(=C(\c1ccccc1)c1ccc(OC)cc1)c1ccccc1 [Compound 19, (Z)-1,1-Diethyl-3-(4-(4-methoxyphenyl)-3,4-diphenylbut-3-enyl)urea]
melting point: 159 to 160 °C | IC50 [1, 7]: > 50 µM | IC50 [2, 8]: 40.7 ± 12.2 µM

CCOC(=O)C(=O)NCC/C(=C(\c1ccccc1)c1ccc(OC)cc1)c1ccccc1 [Compound 15, (Z)-Ethyl-2-(4-(4-methoxyphenyl)-3,4-diphenylbut-3-enylamino)-2-oxoacetate]
IC50 [1, 7]: > 50 µM | IC50 [2, 8]: > 50 µM

(Z)-Ethyl-2-(4-(4-methoxyphenyl)-3,4-diphenylbut-3-enylamino)-2-oxoacetate [Compound 15]
expression of MMP-9 [3]: modulated the expression | cytotoxic activity ([1]; MTT): much more effective than the standards | cytotoxic activity ([2]; MTT): much more effective than the standards

COc1ccc(/C(=C(/CCNC(=O)NCc2ccccc2)c2ccccc2)c2ccccc2)cc1 [Compound 16, (Z)-1-Benzyl-3-(4-(4-methoxyphenyl)-3,4-diphenylbut-3-enyl) urea]
melting point: 158 to 160 °C | IC50 [1, 7]: > 50 µM | IC50 [2, 8]: > 50 µM

(Z)-Phenyl-4-(4-methoxyphenyl)-3,4-diphenylbut-3-enylcarbamate [Compound 14]
expression of MMP-9 [3]: modulated the expression | cytotoxic activity ([1]; MTT): much more effective than the standards | cytotoxic activity ([2]; MTT): much more effective than the standards

[N-]=[N+]=NCCOc1ccc(/C(=C(/CCN=[N+]=[N-])c2ccccc2)c2ccccc2)cc1 [Compound 5, (Z)-[4-azido-1-{4-(2-azidoethoxy)phenyl}but-1-ene-1,2-diyl]dibenzene]
anticancer activity in initial screening [1]: ineffective | anticancer activity in initial screening [2]: ineffective

COc1ccc(/C(=C(/CCNC(=O)N2CCCCC2)c2ccccc2)c2ccccc2)cc1 [Compound 20, (Z)—N-(4-(4-Methoxyphenyl)-3,4-diphenylbut-3-enyl)piperidine-1-carboxamide]
melting point: 197 to 198 °C | IC50 [1, 7]: > 50 µM | IC50 [2, 8]: > 50 µM

COc1ccc(/C(=C(/CCNC(=O)C(=O)NC2CCCCC2)c2ccccc2)c2ccccc2)cc1 [Compound 23, (Z)—N1-Cyclohexyl-N2-(4-(4-methoxyphenyl)-3,4-diphenylbut-3-enyl)oxalamide]
expression of MMP-9 [3]: inhibited the expression | expression of c-Myc [4]: inhibited the expression | expression of caveolin [5]: did not inhibit the expression | melting point: 198 to 199 °C | IC50 [1, 7]: 12.1 ± 4.5 µM | cytotoxic activity ([1]; MTT): remarkable activity | IC50 [2, 8]: 12.2 ± 5.3 µM | cytotoxic activity ([2]; MTT): remarkable activity

COc1ccc(/C(=C(/CCCl)c2ccccc2)c2ccccc2)cc1 [Compound 11, (Z)-(4-Chloro-1-(4-methoxyphenyl)but-1-ene-1,2-diyl)dibenzene]
melting point: 87 to 89 °C

COc1ccc(/C(=C(/CCNC(=O)C(=O)N2CCOCC2)c2ccccc2)c2ccccc2)cc1 [Compound 25, (Z)—N-(4-(4-Methoxyphenyl)-3,4-diphenylbut-3-enyl)-2-morpholino-2-oxoacetamide]
melting point: 118.4 to 119.3 °C | IC50 [1, 7]: 43.4 ± 7.5 µM | IC50 [2, 8]: 20 ± 9.8 µM | cytotoxic activity ([2]; MTT): good activity

COc1ccc(/C(=C(/CCNC(=O)C(=O)NCc2ccccc2)c2ccccc2)c2ccccc2)cc1 [Compound 22, (Z)—N1-Benzyl-N2-(4-(4-methoxyphenyl)-3,4-diphenylbut-3-enyl)oxalamide]
expression of MMP-9 [3]: inhibited the expression | expression of c-Myc [4]: inhibited the expression | expression of caveolin [5]: did not inhibit the expression | melting point: 169 to 172 °C | IC50 [1, 7]: > 50 µM | IC50 [2, 8]: 11.5 ± 3.8 µM | cytotoxic activity ([2]; MTT): selectively cytotoxic

[N-]=[N+]=NCC/C(=C(\c1ccccc1)c1ccc(OCCO)cc1)c1ccccc1 [Compound 4, (Z)-2-{4-(4-azido-1,2-diphenylbut-1-enyl)phenoxy}ethanol]
melting point: 126 to 128 °C | anticancer activity in initial screening [1]: activity similar to Ospemifene | IC50 [1, 9]: > 100 µM | IC50 [1, 10]: > 100 µM | IC50 [2, 11]: > 100 µM | IC50 [2, 12]: > 100 µM

CS(=O)(=O)OCCOc1ccc(/C(=C(/CCCl)c2ccccc2)c2ccccc2)cc1 [Compound 2, (Z)-2-{4-(4-chloro-1,2-diphenylbut-1-enyl}phenoxy) ethyl methanesulfonate]
melting point: 84 to 86 °C | anticancer activity in initial screening [1]: inactive | anticancer activity in initial screening [2]: inactive

COc1ccc(/C(=C(/CCNC(=O)C(=O)N2CCCC2)c2ccccc2)c2ccccc2)cc1 [Compound 24, (Z)—N-(4-(4-Methoxyphenyl)-3,4-diphenylbut-3-enyl)-2-oxo-2-(pyrrolidin-1-yl)acetamide]
melting point: 151 to 152 °C | IC50 [1, 7]: > 50 µM | IC50 [2, 8]: 48.6 ± 14.5 µM

OCCOc1ccc(/C(=C(/CCCl)c2ccccc2)c2ccccc2)cc1 [Ospemifene, (Z)-2-{4-(4-chloro-1,2-diphenylbut-1-enyl)phenoxy}ethanol, reference compound]
IC50 [1, 9]: > 100 µM | IC50 [1, 10]: 55 µM | cell death ([1]; initial screening, 25 μM): ~40% | IC50 [2, 11]: > 100 µM | IC50 [2, 12]: > 100 µM | toxicity to normal MEF cells [6]: non-toxic

COc1ccc(/C(=C(/CCNC(=O)C(=O)N2CCCCC2)c2ccccc2)c2ccccc2)cc1 [Compound 26, (Z)—N-(4-(4-Methoxyphenyl)-3,4-diphenylbut-3-enyl)-2-oxo-2-(piperidin-1-yl)acetamide]
melting point: 125 to 127 °C | IC50 [1, 7]: > 50 µM | IC50 [2, 8]: > 50 µM

COc1ccc(/C(=C(/CCN)c2ccccc2)c2ccccc2)cc1 [Compound 13, (Z)-4-(4-Methoxyphenyl)-3,4-diphenylbut-3-en-1-amine]
expression of MMP-9 [3]: inhibited the expression | expression of c-Myc [4]: inhibited the expression | expression of caveolin [5]: inhibited the expression | melting point: 129 to 131 °C | effectiveness versus Ospemifene and Tamoxifen ([1]; MTT, 0.5-100 μM, 48 h (FIG. 28B)): more effective | cytotoxic activity ([1]; MTT): remarkable activity | effectiveness versus Ospemifene and Tamoxifen ([2]; MTT, 0.5-100 μM, 48 h (FIG. 28A)): more effective | cytotoxic activity ([2]; MTT): remarkable activity

[N-]=[N+]=NCCOc1ccc(/C(=C(/CCCl)c2ccccc2)c2ccccc2)cc1 [Compound 3, (Z)-[1-{4-(2-azidoethoxy)phenyl}-4-chlorobut-1-ene-1,2-diyl]dibenzene]
melting point: 88 to 90 °C | anticancer activity in initial screening [1]: inactive | anticancer activity in initial screening [2]: inactive

COc1ccc(/C(=C(/CCN=[N+]=[N-])c2ccccc2)c2ccccc2)cc1 [Compound 12, (Z)-(4-Azido-1-(4-methoxyphenyl)but-1-ene-1,2-diyl)dibenzene]
melting point: 126 to 128 °C

O=C(NCC/C(=C(\c1ccccc1)c1ccc(OCCO)cc1)c1ccccc1)Oc1ccccc1 [Compound 8, (Z)-Phenyl 4-{4-(2-hydroxyethoxy)phenyl}-3,4-diphenylbut-3-enylcarbamate]
melting point: 121 to 123 °C | anticancer activity in initial screening [1]: more potent than Ospemifene | IC50 [1, 9]: 76 µM | IC50 [1, 10]: 50 µM | anticancer activity in initial screening [2]: more potent than Ospemifene | IC50 [2, 11]: > 100 µM | IC50 [2, 12]: 62.3 µM
